{"source": "patent US8455439B2", "about": "“Antidotes for factor Xa inhibitors and methods of using the same in combination with blood coagulating agents” (Portola Pharmaceuticals, Inc., priority 2008, dated 2013)", "key": {"pooled human plasma [1]": {"system": "pooled human plasma", "assay": "Prothrombin time (PT) clotting assay, MLA Electra 800 automatic coagulation timer", "format": "biochemical", "details": "1 μM rivaroxaban alone (baseline 12.2 sec)"}, "[2]": {"details": "cited from earlier work"}, "[3]": {"system": "thrombin generation in human plasma", "assay": "Thrombin generation assay in platelet poor or platelet rich plasma", "format": "biochemical", "details": "250 nM betrixaban, at all rfVIIa concentrations tested (50-200 nM) with tissue factor; FIG. 4", "experimental": "PRP and PPP were prepared by spinning the anticoagulated blood at ˜100× gravity or 1000× gravity for 20 minutes, respectively, at room temperature. 75-100 microliter (uL) plasma was mixed with CaCl2 and Z-Gly-Gly-Arg-aminomethylcoumarin (Z-GGR-AMC, a thrombin fluorogenic substrate). Tissue factor (Innovin, Dade Behring) was added to initiate the generation of thrombin. For a typical experiment, the reaction mixture contained 15 millimolar (mM) Ca^2+, 100 micromolar (μM) Z-GGR-AMC, and 0.1 nanomolar (nM) tissue factor (TF) (Innovin). Thrombin formation was monitored continuously at 37° C. by a fluorometric plate reader (Molecular Devices) measuring the relative fluorescence units (RFU). Inhibitor and antidote, when present, were pre-incubated with plasma for 20 minutes at room temperature before initiation of thrombin generation.\nPRP and PPP were prepared by spinning the anticoagulated blood at ˜100× gravity or 1000× gravity for 20 minutes, respectively, at room temperature. […] Tissue factor (Innovin, Dade Behring) and CaCl2 were added to initiate the generation of thrombin. […] Thrombin formation was monitored continuously at 37° C. by a fluorometric plate reader (Molecular Devices) measuring the relative fluorescence units (RFU). […]"}, "pooled human plasma [4]": {"system": "pooled human plasma", "assay": "aPTT clotting assay, MLA Electra 800 automatic coagulation timer", "format": "biochemical", "experimental": "Two clotting assay formats were used to test the effects of factor Xa inhibitors and the antidote on clotting prolongation. […] In the second assay format, aPTT was measured with a conventional coagulation instrument (MLA Electra 800 automatic coagulation timer).\nThe effect of 1 antiXa Unit/mL LMWH on aPTT prolongation of plasma and the reversal of inhibitory effect was measured by a MLA Electra 800 Automatic coagulation timer. 100 μL pooled citrate anticoagulated human plasma was mixed with enoxaparin and different concentrations of antidote. Prior to measurement of clotting time, aPTT reagent (Actin FS, Dade Behring) and CaCl2 were added per manufacturer's instructions."}, "[5]": {"system": "human platelet poor plasma", "assay": "Clotting prolongation assay, 96-well plate format (OD405 turbidity change, aPTT reagent)", "format": "biochemical", "details": "125 nM betrixaban, no r-Antidote, no FX; FIG. 26"}}, "note": "Values joined by “and” are separate entries in the source; they are usually repeats but may differ in a detail not shown here. Equal values may be shown once.", "data": [{"compound": "O=C(NC[C@H]1CN(c2ccc(N3CCOCC3=O)cc2)C(=O)O1)c1ccc(Cl)s1", "note": "[rivaroxaban]", "values": [{"measurement": "PT", "setting": "pooled human plasma [1]", "result": "25 ± 0.4", "unit": "s"}, {"measurement": "peak plasma concentrations", "setting": "[2]; clinically effective doses", "result": "≤ 318 ng/ml and ≤ 730 nM"}, {"measurement": "therapeutic concentrations", "setting": "[2]; reported, Kubitza 2005", "result": "approximately 600 nM"}]}, {"compound": "[2-({4-[(dimethylamino)iminomethyl]phenyl}carbonylamino)-5-methoxyphenyl]-N-(5-chloro(2-pyridyl))carboxamide [betrixaban]", "values": [{"measurement": "inhibition of fXa by betrixaban (thrombin generation)", "setting": "[3]", "result": "about 75%"}, {"measurement": "aPTT", "setting": "pooled human plasma [4]; 300 nM Betrixaban alone", "result": 61.8, "unit": "s"}, {"measurement": "aPTT", "setting": "pooled human plasma [4]; 400 nM Betrixaban alone (Table 17)", "result": 66.3, "unit": "s"}, {"measurement": "aPTT", "setting": "pooled human plasma [4]; 400 nM betrixaban alone (Example 17, baseline 25.5 sec)", "result": "51.6 ± 0.4", "unit": "s"}, {"measurement": "extension of aPTT", "setting": "pooled human plasma [4]; 400 nM betrixaban, FIG. 13", "result": "more than two folds"}, {"measurement": "effect on clotting time", "setting": "[5]", "result": "doubled the clotting time"}]}, {"compound": "fIX: human plasma derived blood coagulation factor IX (Haematologic Technologies)", "values": [{"measurement": "aPTT", "setting": "pooled human plasma [4]; 258 nM fIX, 400 nM betrixaban", "result": 43.8, "unit": "s"}, {"measurement": "correction of aPTT", "setting": "pooled human plasma [4]; 258 nM fIX, 400 nM betrixaban", "result": 15, "unit": "%"}, {"measurement": "correction of aPTT", "setting": "pooled human plasma [4]; 387 nM fIX, 400 nM betrixaban", "result": 15, "unit": "%"}, {"measurement": "effect on aPTT in human plasma", "setting": "pooled human plasma [4]; fIX, absence of betrixaban, FIG. 25", "result": "slightly reduced aPTT"}]}]}
